≈ marks a conversion by molar mass, not a printed value. Like-named read-outs stand apart in the source and are kept apart here.
Tests used:
bacteria = experiment: Antibacterial activity, broth dilution (Table III); format: cell-based; conditions: graded activity, organism not given
Description: (§1) Antibacterial activity can be determined by several standard methods well known by those skilled in the art, including disc diffusions methods, broth dilution minimal inhibitory concentration (MIC) methods, etc., including the detailed method outlined below and as defined by the National Committee of Clinical Laboratory Standards in the United States.
(§2) MIC, Broth Dilution Method
(§3) Cultures of bacteria are initially brought up from the freezer stocks onto chocolate agar plates by streaking a loop-full, then incubated for 18 hours at 35-37° C. in a 5% CO2 incubator.
(§4) Five to 10 colonies are picked from the chocolate agar plate for subculture to Brain-Heart Infusion (BHI) broth or Mueller Hinton broth or BHI containing 4% serum and incubated as described.
(§5) Evaluate the optical density of the organisms in the wells of a 96 well microtiter plate with and without the test compound. The optical density of the organisms in the presence of an active compound will be less than the optical density of the same organism untreated. The activity of the compounds is described as either negative or the lowest concentration inhibiting growth. The results are depicted in Table III, where +/− represents the least activity and ++++ represents the greatest activity. In Table IV, the results are depicted where MIC represents the lowest concentration of antibiotic that inhibits bacterial growth.

Campylobacter jejuni = experiment: MIC, broth dilution method, Campylobacter jejuni; format: cell-based; conditions: for MIC: Campylobacter jejuni
Description: as §1, §2, §3, §4, §5

Helicobacter pylori = experiment: MIC, broth dilution method, Helicobacter pylori; format: cell-based; conditions: for MIC: Helicobacter pylori
Description: as §1, §2, §3, §4, §5

[1] = Table IV, MIC, lowest concentration that inhibits bacterial growth, read-out: Antibacterial Activity (micrograms/ml) Campylobacter jejuni
[2] = Table IV, MIC, lowest concentration that inhibits bacterial growth, read-out: Antibacterial Activity (micrograms/ml) Helicobacter pylori
[3] = Table V, read-out: MIC (μg/mL) C. jejuni
[4] = Table V, read-out: MIC (μg/mL) H. pylori
[5] = Table IV, MIC, lowest concentration that inhibits bacterial growth

SMILES	Antibacterial Activity (bacteria)	MIC (Campylobacter jejuni; [1])	MIC (Helicobacter pylori; [2])	melting point	other results
CCN1C(=O)CCCc2cc(N3CCNCC3)c(OC)cc21.Cl [Example 22, 1-ethyl-8-methoxy-7-(piperazin-1-yl)-2,3,4,5-tetrahydro-1H-1-benzazepine-2-one hydrochloride]	−	> 200 µg/mL	> 200 µg/mL		
COc1cc2c(cc1Br)CCC(C(=O)OC(C)(C)C)C(=O)N2 (racemic) [Example 32, 7-Bromo-3(R,S)-tert-butoxycarbonyl-8-methoxy-2,3,4,5-tetrahydro-1H-1-benzazepine-2-one]	++++	> 200 µg/mL	0.78 µg/mL (≈ 2.11 µM)	207 to 208 °C	
CCN1C(=O)C(C(=O)O)CCc2cc(Br)c(OC)cc21 (racemic) [Example 17, 7-Bromo-3(R,S)-carboxyl-1-ethyl-8-methoxy-2,3,4,5tetrahydro-1H-1-benzazepine-2-one]	+/−	> 200 µg/mL	200 µg/mL (≈ 584 µM)	188 to 189 °C (dec.)	
COc1ccc2c(c1)NC(=O)C(C(=O)NOCc1ccccc1)CC2 (stereo not shown) [Example 193, 3-Benzyloxyaminocarbonyl-8-methoxy-2,3,4,5-tetrahydro-1H-1-benzazepine-2-one]				162 to 164 °C	MIC (Campylobacter jejuni; [3]): > 250 µg/mL; MIC (Helicobacter pylori; [4]): 4 µg/mL (≈ 11.8 µM)
COc1ccc2c(c1)N(C(=O)OC(C)(C)C)C(=O)C(C(=O)OC(C)(C)C)CC2 (racemic) [Example 23, 1-tert-Butoxycarbonyl-3(R,S)-tert-butoxycarbonyl-8-methoxy-2,3,4,5-tetrahydro-1H -benzazepine-2-one]		200 µg/mL (≈ 511 µM)	50 µg/mL (≈ 128 µM)	91 to 92 °C	
COc1cc2c(cc1N1CCN(C(=O)OCc3ccccc3)CC1)CCC(C(=O)OC(C)(C)C)C(=O)N2Cc1cccc(F)c1 (racemic) [Example 31, 7-[(4-Benzyloxycarbonyl)piperazin-1-yl]-3(R,S)-tert-butoxycarbonyl-1-(3-fluorobenzyl)-8-methoxy-2,3,4,5-tetrahydro-1 H-1-benzazepine-2-one]	++++				Antibacterial Activity (micrograms/ml) Campylobacter jejuni (Campylobacter jejuni; [5]): >200 micrograms/ml; Antibacterial Activity (micrograms/ml) Helicobacter pylori (Helicobacter pylori; [5]): 0.78 micrograms/ml
O=C1CCCc2ccc(O)cc2N1 [Example 33, 8-Hydroxy-2,3,4,5-tetrahydro-1H-1-benzazepine-2-one]	++++	> 200 µg/mL	0.78 µg/mL (≈ 4.4 µM)	226 to 227 °C	
CCN1C(=O)C(C(=O)OC(C)(C)C)CCc2cc(N3CCNCC3)c(OC)cc21 (racemic) [Example 18, 3(R,S)-tert-Butoxycarbonyl-1-ethyl-8-methoxy-7-(piperazin-1-yl)-2,3,4,5-tetrahydro-1H-1-benzazepine-2-one]		> 200 µg/mL	50 µg/mL (≈ 124 µM)	165 °C (dec.)	
CCN1C(=O)C(C(=O)OC(C)(C)C)CCc2ccc(OC)cc21 (racemic) [Example 12, 3(R,S)-tert-Butoxycarbonyl-1-ethyl-8-methoxy-2,3,4,5-tetrahydro-1H-1-benzazepine-2-one]		> 200 µg/mL	50 µg/mL (≈ 157 µM)	132 to 133 °C	
CCOC(=O)C1CCc2ccc(OC)cc2NC1=O (racemic) [Example 3, 3(R,S)-Ethoxycarbonyl-8-methoxy-2,3,4,5-tetrahydro-1H-1-benzazepine-2-one]		100 µg/mL (≈ 380 µM)	50 to 100 µg/mL (≈ 190 to 380 µM)	89 to 91 °C	
CCOC(=O)NC(=S)Nc1cc2c(cc1OC)NC(=O)C(C(=O)OC(C)(C)C)CC2 (racemic) [Example 176, 3(R,S)-tert-Butoxycarbonyl-7-[(ethoxycarbonylamino)thiocarbonyl)]amino-8-methoxy-2,3,4,5-tetrahydro-1H-1-benzazepine-2-one]	++++				Antibacterial Activity (micrograms/ml) Campylobacter jejuni (Campylobacter jejuni; [5]): >250 micrograms/ml; MIC (μg/mL) C. jejuni (Campylobacter jejuni; Table V): >250, μg/mL; Antibacterial Activity (micrograms/ml) Helicobacter pylori (Helicobacter pylori; [5]): 4 micrograms/ml; MIC (μg/mL) H. pylori (Helicobacter pylori; Table V): 4 µg/mL (≈ 9.14 µM)
COc1ccc2c(c1)NC(=O)C(C(=O)OC(C)(C)C)CC2 (racemic) [Example 11, 3(R,S)-tert-Butoxycarbonyl-8-methoxy-2,3,4,5-tetrahydro-1 H-1-benzazepine-2-one]		100 to 200 µg/mL (≈ 343 to 686 µM)	50 µg/mL (≈ 172 µM)	145 to 147 °C	
COc1ccc2c(c1)NC(=O)CCC2 [Example 2, 8-Methoxy-2,3,4,5-tetrahydro-1H-1-benzazepine-2-one]		50 µg/mL (≈ 261 µM)	> 200 µg/mL	105 to 106 °C	
CCN1C(=O)C(C(=O)OC(C)(C)C)CCc2ccc(O)cc21 (racemic) [Example 178, 3(R,S)-tert-Butoxycarbonyl-1-ethyl-8-hydroxy-2,3,4,5-tetrahydro-1H-1-benzazepine-2-one]				154 to 156 °C	MIC (Campylobacter jejuni; [3]): > 200 µg/mL; MIC (Helicobacter pylori; [4]): 16 µg/mL (≈ 52.4 µM)
CCN1C(=O)C(C(=O)O)CCc2ccc(OC)cc21 (racemic) [Example 5, 3(R,S)-Carboxyl-1-ethyl-8-methoxy-2,3,4,5-tetrahydro-1H-1-benzazepine-2-one]		> 200 µg/mL	100 µg/mL (≈ 380 µM)	120 to 121 °C	
CCN1C(=O)C(C(=O)OC(C)(C)C)C=Cc2ccc(OC)cc21 (racemic) [Example 16, 3(R,S)-tert-Butoxycarbonyl-1-ethyl-8-methoxy-2,3-dihydro-1H-1-benzazepine-2-one]	++++	> 200 µg/mL	> 6.25 µg/mL	173 to 174 °C	
CCN1C(=O)CCCc2cc(N3CCN(C)CC3)c(OC)cc21 [Example 10]	+/−				Antibacterial Activity (micrograms/ml) Campylobacter jejuni (Campylobacter jejuni; [5]): >200 micrograms/ml; Antibacterial Activity (micrograms/ml) Helicobacter pylori (Helicobacter pylori; [5]): >200 micrograms/ml
COc1cc2c(cc1Br)CCCC(=O)N2 [Example 24, 7-Bromo-8-methoxy-2,3,4,5-tetrahydro-1H-1-benzazepine-2-one]		> 200 µg/mL	100 µg/mL (≈ 370 µM)	180 to 182 °C	
CCN1C(=O)C(C(=O)NC(C)(C)C)CCc2cc(Br)c(OC)cc21 (racemic) [Example 29, 7-bromo-3(R,S)-N-(tert-butyl)aminocarbonyl-1-ethyl-8-methoxy-2,3,4,5-tetrahydro-1H-1-benzazepine-2-one]	−	> 200 µg/mL	> 200 µg/mL		
CCN1C(=O)C(C(=O)O)CCc2cc(N3CCNCC3)c(OC)cc21.Cl (racemic) [Example 15, 3(R, S)-Carboxyl-1-ethyl-8-methoxy-7-(piperazin-1-yl)-2,3,4,5-tetrahydro-1H-1-benzazepine-2-one hydrochloride]	−	> 200 µg/mL	> 200 µg/mL	173 to 176 °C (dec.)	
O=C1CCCc2cc([N+](=O)[O-])c(O)cc2N1 [Example 175, 8-Hydroxy-7-nitro-2,3,4,5-tetrahydro-1 H-1-benzazepine-2-one]		30 µg/mL (≈ 135 µM)	1 µg/mL (≈ 4.5 µM)	239 to 240 °C	MIC (Campylobacter jejuni; [3]): 30 µg/mL (≈ 135 µM); MIC (Helicobacter pylori; [4]): 1 µg/mL (≈ 4.5 µM)
CC(C)(C)OC(=O)C1CCc2cc([N+](=O)[O-])c(O)cc2NC1=O (racemic) [Example 220, 3(R,S)-tert-Butoxycarbonyl-8-hydroxyl-7-nitro-2,3,4,5-tetrahydro-1H-1-benzazepine-2-one]				189 to 191 °C (dec.)	MIC (Campylobacter jejuni; [3]): 250 µg/mL (≈ 776 µM); MIC (Helicobacter pylori; [4]): 8 µg/mL (≈ 24.8 µM)
COc1cc2c(cc1Br)CCC(C(=O)OC(C)(C)C)C(=O)N2Cc1cccc(F)c1 (racemic) [Example 30, 7-Bromo-3(R,S)-tert-butoxycarbonyl-1-(3-fluorobenzyl)-8-methoxy-2,3,4,5-tetrahydro-1H-1-benzazepine-2-one]	++++	> 200 µg/mL	1.56 µg/mL (≈ 3.26 µM)	146 to 148 °C	
CCN1C(=O)C(C(=O)OC(C)(C)C)CCc2cc(Br)c(OC)cc21 (racemic) [Example 13, 7-Bromo-3(R,S)-tert-butoxycarbonyl-1-ethyl-8-methoxy-2,3,4,5-tetrahydro-1H-1-benzazepine-2-one]		> 200 µg/mL	6.25 to 12.5 µg/mL (≈ 15.7 to 31.4 µM)	131 to 132 °C	
